Measured values as given in patent US8609810B2, “Methylglyoxal-scavenging compounds and their use for the prevention and treatment of pain and/or hyperalgesia” (Ruprecht-Karls-Universitat Heidelberg, priority 2009, dated 2013).
Values belong to the compound of their own block, whether it stands above or below them. Where no end group is shown, it is not given here.

Experiments:
[1] = test system: diabetes induced hyperalgesia in diabetic wild-type mice; assay: Diabetes induced hyperalgesia, hot-plate assay in STZ-induced diabetic wild-type mice; assay type: in vivo
Method: Diabetic wildtype mice (Male; 18 wks) were injected with either 1 mg GERP or GEAP i.p. Following 1 day of treatment with either peptide, treatment was discontinued, after which consecutive measurements of hyperalgesia were performed to determine biological half-life of the peptide. This was determined to be ca. 80 hrs. Data represent the mean±SEM (N=10), ***P<0.0001, **P<0.001, *P<0.05, NSP>0.05 vs. GERP or GEAP control at respective time point; 000P<0.0001, NSP>0.05 vs. day 0.
Diabetes was induced by i.p. administration of STZ at 60 mg/kg, freshly dissolved in sterile sodium citrate (0.05M, pH4.5) on 6 subsequent days. Control animals received sodium citrate only. Diabetes was verified 16-25 days later by measurement of blood glucose levels in samples from the tail vein using ACCU-CHEK glucose sticks and a conventional Accutrend glucometer. In the first 2 weeks following the onset of diabetes, blood glucose was measured daily. If glucose levels occasionally recovered, an additional STZ injection was given on day 25-27. More than 90% of mice became diabetic within the first 4 weeks and were used throughout the experiment. As soon as blood glucose increased above 300 mg/dl, individual supplementation with 1-2 U Insulin Semilenta (40 U/ml) was started. Once glucose levels had stabilized, blood glucose was determined at least once a week for the first 2 months, and thereafter every second week. Tight blood glucose control kept individual blood glucose level stable throughout the experiments. At the end of the experiments, mice were sacrificed with CO2, and both sciatic nerves dissected, weighed and snap-frozen in liquid nitrogen.
(§1) Hyperalgesia was studied using the hot-plate assay with an electronically controlled hot-plate analgesia meter (Columbus Instructments, Columbus, Ohio) at 50° C.. Each mouse was removed from the hot plate when a jumping escape response occurred or hind paws were licked, or after a maximal cut-off time of 60 seconds. […] Three measurements were taken per animal at each of the specified time points and averaged. The difference in latency times between control and treated animals, was calculated as a measure of hyperalgesia.
To determine the effect of GERP on diabetes induced hyperalgesia, STZ-induced diabetic wild-type mice (Male; 18 wks) were injected intraperitioneal with either 1 mg of GERP001 or GEAP. After 24 hrs, hyperalgesia was assessed by hotplate assay.

[2] = test system: methylglyoxal-induced hyperalgesia in healthy wild-type mice; assay: Methylglyoxal-induced hyperalgesia, hot-plate assay (in vivo scavenging of methylglyoxal); details: 1 mg i.p., MG 70 μM, FIG. 6A
Method: Healthy wildtype mice (10-12 weeks), were injected with 1 mg GERP (≡1.096×1015 Arg residues) or control peptide GEAP; i.p. 30 mins prior to injection with methylglyoxal (MG; 70 μM). Hyperalgesia was assessed 3 hrs after i.p injection by hot-plate assay. Data represent mean±SEM (N=10). GERP reduced methylglyoxal-induced hyperalgesia by ca. 60% in healthy wildtype mice, whereas the control peptide had no effect, showing that scavanging of methylglyoxal reduced hyperalgesia.
as §1
A synthetic peptide, GERP001, containing ten arginine residues per molecule act as an effective in vivo scavenger of methylglyoxal was designed in house and synthesized (GenWay Biotech, Inc. San Diego, Calif., USA). […] Hyperalgesia was assessed 3 hrs after administration of methylglyoxal.

[3] = Plasma methylglyoxal measurement after i.v. injection of MG (HPLC); assay type: in vivo, mice; details: male, wild-type, mouse, iv, 5 μg MG i.v., within 10 min, read-out: plasma MG levels
Method: (B) 5 μg ([…]) MG was administered by i. v. injection as 0.9% NaCl solution to male healthy wild-type mice (10-12 weeks old) and MG-plasma concentrations were determined by HPLC at time point Oh, 10 min, 30 min, 1 h and 3 h. Data represent mean±SD (n=3 per time point).
(§2) The concentration of methylglyoxal in mouse plasma samples was determined by derivatization with 1,2-diamino-4,5-dimethoxybenezene using a previously described method. Blood samples were drawn into EDTA containing tubes from the retrobulbar vessels at time of sacrifice and centrifuged (2000 g; 5 mins). Plasma was removed and acidified with 10% TCA (0.1 ml). Samples were either analyzed immediately or stored at −80° C.

healthy wild-type mice = assay: Exogenous methylglyoxal induces thermal hyperalgesia in vivo (hot plate)
Method: as §1, with “hyperalgesia. Healthy wild-type mice (Male; 10-12 weeks) were treated with various concentrations of methylglyoxal (0.7 μM-700 μM) by intravenous injection as 0.9% NaCl solution. Control groups were injected with 0.9% NaCl solution. After 3 hrs incubation time, hyperalgesia was assessed.” for “hyperalgesia.”

glyoxalase-I = molecular target: T1, glyoxalase-I (Mus musculus, UniProt Q9CPU0); assay: In vivo inhibition of Glyoxalase I in healthy wild-type mice
T1 construct: Healthy wild-type mice (Male); from tissue
T1 sequence (Q9CPU0 2-184 limits assumed): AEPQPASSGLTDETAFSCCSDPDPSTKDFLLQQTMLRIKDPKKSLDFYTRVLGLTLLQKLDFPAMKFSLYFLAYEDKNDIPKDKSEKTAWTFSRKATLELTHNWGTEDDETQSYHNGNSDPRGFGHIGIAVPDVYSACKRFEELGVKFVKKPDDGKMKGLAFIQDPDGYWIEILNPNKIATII
Method: (A) Inhibition of Glyoxalase I by the cell permeable inhibitor S-p-Bromobenzylglutathione Cyclopentyl diester in male healthy wild-type mice (10-12 weeks old). Hyperalgesia was assessed by the hot plate assay at day 0 before application of the inhibitor. Thereafter, consecutive assessments of thermal hyperalgesia were made at selected time points (black circles), at which some mice also were sacrificed and plasma isolated for the determination of MG concentration (open circles). Data represent mean±SD (n=3 per time point). Different approaches were utilized to verify the hypothesized threshold-dependent effect of the MG/glyoxalase-system on hyperalgesia.
as §1, §2
Healthy wild-type mice (Male; 10-12 weeks) were pretreated for 48 hrs with 50 μg/g (i.p) of the cell permeable Glyoxalase I inhibitor, S-p-Bromobenzylglutathioine Cyclopentyl diester. After 48 hrs, hyperalgesia was assessed. Mice were then treated every 2nd day for a period of 15 days, during which consecutive assessments of hyperalgesia were made. At selected time points, mice sacrificed, and plasma isolated for determination of methylglyoxal concentration.

Compound: GEAP: a control peptide in which the arginine residues were substituted for alanine (HHHHHHGGGGGEPGEPGEPGEPGEPGEPGEPGEPGEPGEP; GEAP motif containing peptide)
effect on thermal hyperalgesia in diabetic mice ([1]; mice after 8 weeks of diabetes with manifest hyperalgesia, 1 mg i.p., FIG. 6C): no effect
effect on thermal hyperalgesia in MG-treated healthy wild-type mice [2]: no effect

concentration at 10 min [3]: > 800 nM
Compound: CC(=O)C=O [MG, 2-oxo-propanal]
persistence of MG-induced changes resulting in hyperalgesia (healthy wild-type mice; after MG application, data not shown): more than 3 hours
plasma MG level needed for dose-dependent hyperalgesia (threshold concentration) (healthy wild-type mice; plasma MG at 15 min after MG application): exceeded 600 nM
induction of heat hyperalgesia (healthy wild-type mice; systemic (i.v.) MG, 3 h after MG injection, hot plate): significant and dose-dependent induction of heat hyperalgesia

glyoxalase-I enzymatic activity (glyoxalase-I; 3 days after continuous inhibitor administration, injected every second day): fully inhibited
MG plasma concentration (glyoxalase-I; 6 days after initiation of treatment): exceeded 600 nM
thermal hyperalgesia (glyoxalase-I; 6 days after initiation of treatment, hot plate): significant thermal hyperalgesia
Compound: NC(CCC(=O)NC(CSCc1ccc(Br)cc1)C(=O)NCC(=O)OC1CCCC1)C(=O)OC1CCCC1 (stereo not drawn) [S-p-Bromobenzylglutathione Cyclopentyl diester]

Compound: HHHHHHGGGGGERPGERPGERPGERPGERPGERPGERPGERPGERPGERP [GERP001]
physiological / biological effective half-life ([1]; diabetic mice, 1 mg i.p., after treatment discontinued, regression analysis, linear decay model): ca. 80 hrs
biological effective half-life (preliminary experiments) ([1]; preliminary experiments, data fitted to an exponential decay (R2=0.9734)): ca. 13 hrs
half-life of the effect of a single injection ([1]; single injection (1 mg)): 80 h
